Source: patent US12655116B2, “Substituted isophthalic acid diamides” (Bayer Aktiengesellschaft, priority 2020, dated 2026)

Experiments:
SETVI [1] = test: Post-emergence herbicidal action against SETVI; type: in vivo, Setaria viridis; details: Setaria viridis, 504 h, dosage 20 g/ha
Procedure, shortened: (§1)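 Percent herbicidal action is rated by eye about 3 weeks after treatment against untreated controls, where 100% means dead plants and 0% means like controls. Plants in sandy loam are sprayed on green parts at the one-leaf stage with aqueous WP or EC preparations at 600 to 800 l/ha plus 0.2% wetting agent.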

POLCO = test: Pre-emergence herbicidal action against POLCO; type: in vivo, Polygonum convolvulus; details: dosage 80 g/ha
Procedure, shortened: (§2)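 Seeds sown in sandy loam, soil-covered; compound sprayed on soil surface pre-emergence. Application: WP/EC, 600–800 l/ha, 0.2% wetting agent. Readout: visual % damage at 3 weeks.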

ECHCG [2] = test: Post-emergence herbicidal action against ECHCG; type: in vivo, Echinochloa crus-galli; details: dosage 20 g/ha
Procedure, shortened: as §1

ALOMY [3] = test: Post-emergence herbicidal action against ALOMY; type: in vivo, Alopecurus myosuroides; details: visual assessment about 3 weeks after treatment vs untreated controls
Procedure, shortened: as §1

AMARE [4] = test: Pre-emergence herbicidal action against AMARE; type: in vivo, Amaranthus retroflexus
Procedure, shortened: as §2

ABUTH [5] = test: Pre-emergence herbicidal action against ABUTH; type: in vivo, Abutilon theophrasti
Procedure, shortened: as §2

PHBPU [6] = test: Post-emergence herbicidal action against PHBPU; type: in vivo, Pharbitis purpurea
Procedure, shortened: as §1

VIOTR [7] = test: Pre-emergence herbicidal action against VIOTR; type: in vivo, Viola tricolor; details: dosage 80 g/ha
Procedure, shortened: as §2

MATIN [8] = test: Pre-emergence herbicidal action against MATIN; type: in vivo, Matricaria inodora
Procedure, shortened: as §2

ABUTH [9] = test: Post-emergence herbicidal action against ABUTH; type: in vivo, Abutilon theophrasti; details: visual assessment about 3 weeks after treatment vs untreated controls
Procedure, shortened: as §1

LOLRI = test: Pre-emergence herbicidal action against LOLRI; type: in vivo, Lolium rigidum; details: 80 g/ha
Procedure, shortened: as §2

MATIN [10] = test: Post-emergence herbicidal action against MATIN; type: in vivo, Matricaria inodora; details: dosage 20 g/ha
Procedure, shortened: as §1

VIOTR [11] = test: Post-emergence herbicidal action against VIOTR; type: in vivo, Viola tricolor; details: Viola tricolor, 504 h
Procedure, shortened: as §1

ECHCG [12] = test: Pre-emergence herbicidal action against ECHCG; type: in vivo, Echinochloa crus-galli
Procedure, shortened: as §2

VERPE [13] = test: Pre-emergence herbicidal action against VERPE; type: in vivo, Veronica persica; details: dosage 80 g/ha
Procedure, shortened: as §2

AMARE [14] = test: Post-emergence herbicidal action against AMARE; type: in vivo, Amaranthus retroflexus; details: 20 g/ha, visual assessment about 3 weeks after treatment, 100% = plants have died, 0% = like control plants
Procedure, shortened: as §1

AVEFA = test: Pre-emergence herbicidal action against AVEFA; type: in vivo, Avena fatua; details: Avena fatua, 504 h, pre-emergence
Procedure, shortened: as §2

SETVI [15] = test: Pre-emergence herbicidal action against SETVI; type: in vivo, Setaria viridis; details: dosage 80 g/ha
Procedure, shortened: as §2

VERPE [16] = test: Post-emergence herbicidal action against VERPE; type: in vivo, Veronica persica; details: Veronica persica, 504 h, 20 g/ha
Procedure, shortened: as §1

ALOMY [17] = test: Pre-emergence herbicidal action against ALOMY; type: in vivo, Alopecurus myosuroides; details: pre-emergence
Procedure, shortened: as §2

PHBPU [18] = test: Pre-emergence herbicidal action against PHBPU; type: in vivo, Pharbitis purpurea
Procedure, shortened: as §2

DIGSA [19] = test: Pre-emergence herbicidal action against DIGSA; type: in vivo, Digitaria sanguinalis
Procedure, shortened: as §2

DIGSA [20] = test: Post-emergence herbicidal action against DIGSA; type: in vivo, Digitaria sanguinalis; details: 20 g/ha
Procedure, shortened: as §1

[21] = 80 g/ha, scored visually after 3 weeks vs untreated controls (100% = plants have died, 0% = like control plants)

Compound: CCCNC(=O)c1c(C(F)F)ccc(C(=O)Nc2nnnn2C)c1C [Example 1-345]
- pest or weed control at 20 g/ha (SETVI [1]): 90%
- pest or weed control at 80 g/ha (POLCO; Fallopia convolvulus, 504 h): 90%
- pest or weed control at 20 g/ha (ECHCG [2]; Echinochloa crus-galli, 504 h): 90%
- pest or weed control at 5 g/ha (ALOMY [3]; Alopecurus myosuroides, 504 h, dosage 5 g/ha): 80%
- pest or weed control at 20 g/ha (ALOMY [3]; Alopecurus myosuroides, 504 h, dosage 20 g/ha): 90%
- pest or weed control at 20 g/ha (AMARE [4]; Amaranthus retroflexus, 504 h, 20 g/ha, scored visually after 3 weeks vs untreated controls, 100% = plants have died, 0% = like control plants): 100%
- pest or weed control at 80 g/ha (AMARE [4]; Amaranthus retroflexus, 504 h, 80 g/ha, scored visually after 3 weeks vs untreated controls, 100% = plants have died, 0% = like control plants): 100%
- pest or weed control at 80 g/ha (ABUTH [5]; Abutilon theophrasti, 504 h, 80 g/ha, scored visually after 3 weeks vs untreated controls (100% = plants have died, 0% = like control plants)): 100%
- pest or weed control at 20 g/ha (ABUTH [5]; Abutilon theophrasti, 504 h, dosage 20 g/ha, scored visually after 3 weeks vs untreated controls, 100% = plants have died, 0% = like control plants, read-out: Pre-emergence action against ABUTH (herbicidal activity in percent)): 100%
- pest or weed control at 5 g/ha (PHBPU [6]; Ipomoea purpurea, 504 h, dosage 5 g/ha): 80%
- pest or weed control at 20 g/ha (PHBPU [6]; Ipomoea purpurea, 504 h, dosage 20 g/ha): 80%
- pest or weed control at 80 g/ha (VIOTR [7]; Viola tricolor, 504 h): 100%
- pest or weed control at 20 g/ha (MATIN [8]; Tripleurospermum inodorum, 504 h, dosage 20 g/ha): 100%
- pest or weed control at 80 g/ha (MATIN [8]; Tripleurospermum inodorum, 504 h, dosage 80 g/ha): 100%
- pest or weed control at 5 g/ha (ABUTH [9]; Abutilon theophrasti, 504 h, dosage 5 g/ha): 80%
- pest or weed control at 20 g/ha (ABUTH [9]; Abutilon theophrasti, 504 h, dosage 20 g/ha): 90%
- pest or weed control at 80 g/ha (LOLRI; Lolium rigidum, 504 h): 80%
- pest or weed control at 20 g/ha (MATIN [10]; Tripleurospermum inodorum, 504 h): 80%
- pest or weed control at 5 g/ha (VIOTR [11]; 5 g/ha): 90%
- pest or weed control at 20 g/ha (VIOTR [11]; 20 g/ha): 100%
- pest or weed control at 20 g/ha (ECHCG [12]; Echinochloa crus-galli, 504 h, 20 g/ha): 90%
- pest or weed control at 80 g/ha (ECHCG [12]; Echinochloa crus-galli, 504 h, 80 g/ha): 100%
- pest or weed control at 80 g/ha (VERPE [13]; Veronica persica, 504 h): 80%
- pest or weed control at 20 g/ha (AMARE [14]; Amaranthus retroflexus, 504 h): 100%
- pest or weed control at 80 g/ha (AVEFA; 80 g/ha): 90%
- pest or weed control at 20 g/ha (AVEFA; 20 g/ha, scored visually after 3 weeks, 100% = plants have died, 0% = like control plants): 80%
- pest or weed control at 80 g/ha (SETVI [15]; Setaria viridis, 504 h): 100%
- pest or weed control at 20 g/ha (VERPE [16]): 90%
- pest or weed control at 80 g/ha (ALOMY [17]; Alopecurus myosuroides, 504 h, 80 g/ha, scored visually after 3 weeks vs untreated controls (100% = plants have died, 0% = like control plants)): 90%
- pest or weed control at 20 g/ha (ALOMY [17]; Alopecurus myosuroides, 504 h, 20 g/ha, scored visually after 3 weeks, 100% = plants have died, 0% = like control plants): 80%

Compound: CCCNC(=O)c1c(C(F)F)ccc(C(=O)Nc2nnnn2CC)c1Cl [Example 2-154]
- Pre-emergence action against PHBPU in % (PHBPU [18]; dosage 20 g/ha): 80%
- Pre-emergence action against PHBPU in % (PHBPU [18]; dosage 80 g/ha): 100%
- Pre-emergence action against POLCO in % (POLCO): 90%
- Post-emergence action against ECHCG in % (ECHCG [2]): 90%
- Post-emergence action against ALOMY in % (ALOMY [3]; dosage 20 g/ha): 80%
- Pre-emergence action against AMARE in % (AMARE [4]; 20 g/ha, scored visually after 3 weeks vs untreated controls, 100% = plants have died, 0% = like control plants): 100%
- Pre-emergence action against AMARE in % (AMARE [4]; [21]): 100%
- Pre-emergence action against ABUTH (herbicidal activity) (ABUTH [5]; [21]): 100%
- Pre-emergence action against ABUTH (herbicidal activity in percent) (ABUTH [5]; dosage 20 g/ha, scored visually after 3 weeks vs untreated controls, 100% = plants have died, 0% = like control plants): 100%
- Post-emergence action against PHBPU in % (PHBPU [6]; dosage 5 g/ha): 90%
- Post-emergence action against PHBPU in % (PHBPU [6]; dosage 20 g/ha): 90%
- Pre-emergence action against VIOTR in % (VIOTR [7]): 100%
- Pre-emergence action against MATIN in % (MATIN [8]; dosage 20 g/ha): 100%
- Pre-emergence action against MATIN in % (MATIN [8]; dosage 80 g/ha): 100%
- Post-emergence action against ABUTH in % (ABUTH [9]; dosage 5 g/ha): 80%
- Post-emergence action against ABUTH in % (ABUTH [9]; dosage 20 g/ha): 90%
- Pre-emergence action against LOLRI in % (LOLRI): 90%
- Post-emergence action against MATIN in % (MATIN [10]): 80%
- Pre-emergence action against ECHCG in % (ECHCG [12]; 80 g/ha): 100%
- Pre-emergence action against VERPE in % (VERPE [13]): 100%
- Post-emergence action at 20 g/ha against AMARE in % (AMARE [14]): 90%
- Pre-emergence action against SETVI in % (SETVI [15]): 100%
- Pre-emergence action against DIGSA in % (DIGSA [19]; dosage 20 g/ha): 100%
- Pre-emergence action against DIGSA in % (DIGSA [19]; dosage 80 g/ha): 100%
- Post-emergence action against DIGSA (DIGSA [20]): 90%
- Pre-emergence action against ALOMY (herbicidal activity) (ALOMY [17]; [21]): 100%
